Consider 14 compounds from patent US11746100B2 (GLOBAL BLOOD THERAPEUTICS, INC., priority 2020, dated 2023).

The target of this assay is T1, human ferroportin (Homo sapiens, UniProt Q9NP59).
T1 construct: luciferase reporter (read with the Nano-Glo Luciferase Assay System); expressed in transfected cells; host or cells: CHO cells, stably transfected, expression induced with doxycycline
T1 sequence (Q9NP59 1-571): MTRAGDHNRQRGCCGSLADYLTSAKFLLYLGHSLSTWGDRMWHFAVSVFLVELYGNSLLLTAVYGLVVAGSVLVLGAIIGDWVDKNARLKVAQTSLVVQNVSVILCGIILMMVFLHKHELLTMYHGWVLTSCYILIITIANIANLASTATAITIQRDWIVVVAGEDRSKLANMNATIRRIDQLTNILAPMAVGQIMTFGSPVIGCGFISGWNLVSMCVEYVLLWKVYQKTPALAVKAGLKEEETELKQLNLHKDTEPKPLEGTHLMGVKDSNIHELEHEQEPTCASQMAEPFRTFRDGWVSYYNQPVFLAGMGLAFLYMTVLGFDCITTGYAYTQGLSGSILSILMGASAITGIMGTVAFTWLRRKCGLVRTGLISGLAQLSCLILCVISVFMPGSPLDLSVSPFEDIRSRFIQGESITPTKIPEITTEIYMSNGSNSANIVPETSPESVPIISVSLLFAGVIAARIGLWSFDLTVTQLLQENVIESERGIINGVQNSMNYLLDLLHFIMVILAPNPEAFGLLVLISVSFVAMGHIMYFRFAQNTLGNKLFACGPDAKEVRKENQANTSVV
In words: Biological in-vitro ferroportin internalization assay (luciferase reporter). It is filed as cell-based. The following applies: average pEC50; stably-transfected CHO cell line expressing human ferroportin tagged to a luciferase reporter; 6 h incubation with test compound. The procedure:
The protocol for this assay is generally as described in WO2018/128828, incorporated herein by reference in its entirety. Functional internalization of ferroportin protein was measured using a stably-transfected CHO cell line expressing the human ferroportin tagged to a luciferase reporter. Cells were plated for 24 h in the presence of ferric ammonium citrate (FAC). Ferroportin protein expression was induced with doxycycline for 24 h. The next day, the compounds were added. Test compounds were dissolved in DMSO. Cells were incubated with the test compounds for 6 h, and subsequently luciferase activity was measured using the Nano-Glo Luciferase Assay System and Glomax (Promega, Madison, Wis.). The average pEC50 was determined for the test compounds.

The compound `CN(CC(=O)NC(C)(C)C)c1nc(-c2ccccn2)nc2c1CCCC2` [Compound 23, N-tert-butyl-2-{methyl[2-(pyridin-2-yl)-5,6,7,8-tetrahydroquinazolin-4-yl]amino}acetamide] displayed a pEC50 of 6.9.

Regarding `Cc1ccnc(-c2nc3c(c(N(C)CC(=O)NC(C)(C)C)n2)CCC3)c1` [Compound 24, N-tert-butyl-2-{methyl[2-(4-methylpyridin-2-yl)-5H,6H,7H-cyclopenta[d]pyrimidin-4-yl]amino}acetamide], the pEC50 stood at 7.6.

Consider `CN(CC(=O)NC1(C)CCCCC1)c1nc(-c2ccccn2)nc2c1CCC2` [Compound 25, 2-{methyl[2-(pyridin-2-yl)-5H,6H,7H-cyclopenta[d]pyrimidin-4-yl]amino}-N-(1-methylcyclohexyl)acetamide], for which the negative logarithm of the EC50 (pEC50) is on record as 7.1.

In turn, `CN(CC(=O)NC1CCCOC1)c1nc(-c2ccccn2)nc2c1CCC2` (centres unmarked) [Compound 26, 2-{methyl[2-(pyridin-2-yl)-5H,6H,7H-cyclopenta[d]pyrimidin-4-yl]amino}-N-(oxan-3-yl)acetamide] registered a pEC50 of 6.6.

For `CN(CC(=O)NCc1ccccc1)c1nc(-c2ccccn2)nc2c1CCC2` [Compound 27, N-benzyl-2-{methyl[2-(pyridin-2-yl)-5H,6H,7H-cyclopenta[d]pyrimidin-4-yl]amino}acetamide], the pEC50 came out at 6.8.

The compound `CN(CC(=O)NC(C)(C)C)c1nc(-c2cnc(O)cn2)nc2c1CCC2` [Compound 28, N-tert-butyl-2-{[2-(5-hydroxypyrazin-2-yl)-5H,6H,7H-cyclopenta[d]pyrimidin-4-yl](methyl)amino}acetamide] yielded a negative logarithm of the EC50 (pEC50) of 5.9.

In the case of `O=C(NC1CCCCC1)C1CN(c2nc(-c3ccccn3)nc3c2CCC3)C1` [Compound 29, N-cyclohexyl-1-[2-(pyridin-2-yl)-5H,6H,7H-cyclopenta[d]pyrimidin-4-yl]azetidine-3-carboxamide], the negative-log EC50 (pEC50) was found to be 5.9.

In turn, `Cc1ccnc(-c2nc3c(c(N4CC(C(=O)NC5CCCCC5)C4)n2)CCC3)c1` [Compound 30, N-cyclohexyl-1-[2-(4-methylpyridin-2-yl)-5H,6H,7H-cyclopenta[d]pyrimidin-4-yl]azetidine-3-carboxamide] showed a negative logarithm of the EC50 (pEC50) of 5.7.

`CN1CCC(NC(=O)CN(C)c2nc(-c3ccccn3)nc3c2CCC3)C1=O` (centres unmarked) [Compound 31, N-(1-methyl-2-oxopyrrolidin-3-yl)-2-{methyl[2-(pyridin-2-yl)-5H,6H,7H-cyclopenta[d]pyrimidin-4-yl]amino}acetamide] registered a negative-log EC50 (pEC50) of 6.2.

The compound `CN(CC(=O)Nc1ccc2c(c1)OC(F)(F)O2)c1nc(-c2ccccn2)nc2c1CCC2` [Compound 32, N-(2,2-difluoro-2H-1,3-benzodioxol-5-yl)-2-{methyl[2-(pyridin-2-yl)-5H,6H,7H-cyclopenta[d]pyrimidin-4-yl]amino}acetamide] returned a pEC50 of 7.2.

As for `CC(C)(C)NC(=O)CNc1nc(-c2ncccn2)nc2c1CCC2` [Compound 33, N-tert-butyl-2-{[2-(pyrimidin-2-yl)-5H,6H,7H-cyclopenta[d]pyrimidin-4-yl]amino}acetamide], the pEC50 was 5.7.

On to `COc1ccnc(-c2nc3c(c(N(C)CC(=O)NC(C)(C)C)n2)CCC3)c1` [Compound 34, N-tert-butyl-2-{[2-(4-methoxypyridin-2-yl)-5H,6H,7H-cyclopenta[d]pyrimidin-4-yl](methyl)amino}acetamide], for which the negative-log EC50 (pEC50) was 7.9.

As for `COCc1ccnc(-c2nc3c(c(N(C)CC(=O)NC(C)(C)C)n2)CCC3)c1` [Compound 35, N-tert-butyl-2-({2-[4-(methoxymethyl)pyridin-2-yl]-5H,6H,7H-cyclopenta[d]pyrimidin-4-yl}(methyl)amino)acetamide], the pEC50 is 7.

With `CCN(CC(=O)NC(C)(C)C)c1nc(-c2ccccn2)nc2c1CCC2` [Compound 36, N-tert-butyl-2-{ethyl[2-(pyridin-2-yl)-5H,6H,7H-cyclopenta[d]pyrimidin-4-yl]amino}acetamide], the negative logarithm of the EC50 (pEC50) came to 7.3.
